From patent publication US7960349B2 (Bristol-Myers Squibb Company, priority 2006, dated 2011)
*1 amine or outer side, *2 acyl side, *3 side chain or, on linkers, in order; H or OH if unused. Where a SMILES comes first, the peptide text is derived from it. Primed or numbered codes have the meaning given here. [ ]: non-standard residue; d: D form. The star is where a group is joined. ξ: configuration not given here. X1 = 4‑(2′-methylphenyl)‑3‑pyridylalanine, Cc1ccccc1-c1ccncc1C[C@H](N[*:1])C(=O)[*:2]; Ala(6-(2-MePh)pyridin-3-yl) = Cc1ccccc1-c1ccc(C[C@H](N)C(=O)O)cn1; Phe(4-(2-Et-4-HO-Ph)) = CCc1cc(O)ccc1-c1ccc(C[C@H](N)C(=O)O)cc1; Bip(2'-Et-4'-OMe) = CCc1cc(OC)ccc1-c1ccc(C[C@H](N)C(=O)O)cc1; X2 = Cc1ccccc1-c1ncc(C[C@H](N[*:1])C(=O)[*:2])cn1; αMePhe(2,6-F2) = C[C@](N)(Cc1c(F)cccc1F)C(=O)O; αMePhe(2-F) = C[C@](N)(Cc1ccccc1F)C(=O)O; ξαMePhe(2-F) = CC(N)(Cc1ccccc1F)C(=O)O; αMeP = C[C@@]1(C(=O)O)CCCN1; dNMeA = CN[C@H](C)C(=O)O; ξαMeP = CC1(C(=O)O)CCCN1; Aib = CC(C)(N)C(=O)O; Moc = COC(=O)*

Tests used:
[1] = Dog pharmacokinetic study; format: in vivo; details: sc 67 μg/kg; vehicle propylene glycol/pH 7.4 phosphate buffer (1:1)
Method: The pharmacokinetic parameters of the Compounds of SEQ ID NO: 9, 118, 151 and 158 were determined in male beagle dogs (n=3-4, 14±1 kg). Following an overnight fast, each animal received the Compounds of SEQ ID NO: 9, 118, 151 and 158 either as an intravenous bolus via femoral vein (67 μg/kg) or by subcutaneous injection given at near the shoulder blades (67 μg/kg). Each animal received both intravenous and subcutaneous doses with a one-week washout between doses following a crossover design. The dosing vehicle for both routes of administration was propylene glycol:pH 7.4 phosphate buffer (50:50) or 0.2 M Tris (pH 8.0). Serial blood samples were collected in EDTA-containing microcentrifuge tubes at predose, 0.083, 0.25, 0.5, 0.75, 1, 2, 4, 6, 8, 24, and 30 hours post-dose after intravenous administration; at predose, 0.25, 0.5, 0.75, 1, 2, 4, 6, 8, 24, and 30 hours post-dose after subcutaneous administration. Approximately 0.3 mL of blood was collected at each time point. Blood samples were immediately centrifuged at 4° C. The obtained plasma was frozen with dry ice and stored at −20° C. Plasma drug levels were determined using the LC-MS/MS assay described below.
Plasma samples from the in vivo dog study were prepared for analysis by precipitating plasma proteins with two volumes of AcCN containing an internal standard. The samples were vortex mixed and the precipitated proteins were removed by centrifugation. The resulting supernatants were transferred to a 96-well plate and 10 μL were injected for TFC-LC/MS/MS analysis.
The TFC-HPLC system (Cohesive TX-1 Flux, Aria 2300 System) consisted of a loading pump, an eluting pump, and a CTC PAL autosampler (Cohesive Technologies, Franklin, Mass.). The columns used were Phenomenex Synergi Fusion-RP (C18, 2.0×50 mm, 4μ) (Phenomenex, Torrance, Calif.) as the analytical column and Turbo-Flow (TF) HTLC Cyclone column (0.5×50 mm) (Cohesive Technologies, Franklin, Mass.) as the extraction column for on-line sample processing. The mobile phase A consisted of 10 mM ammonium formate and 0.1% formic acid in water and mobile phase B consisted of 0.1% formic acid in AcCN. Turbo-Flow Chromatography was used to obtain a cleaner sample. A rapid gradient elution was used for analyte separation. The samples were injected onto the Turbo-Flow HTLC Cyclone column and analytes were separated from biological fluid components with using 100% H2O at 1.5 mL/min. The TF column was back flushed and analytes were back eluted from the TF to HPLC analytical column using a ramp to 60% B over 2 min and held there for 30 seconds at 0.3 mL/min to separate and to elute the analytes from the HPLC column into the mass spectrometer. Both columns were washed for an additional minute and then both columns were re-equilibrated at initial conditions.
The HPLC was interfaced to a Sciex API 4000 mass spectrometer (Applied Biosystems, Foster City, Calif.) and was equipped with a TurboIonspray ionization source. Ultra high purity nitrogen was used as the nebulizing and turbo-gas. The temperature of turbo-gas was set at 300° C. and the interface heater was set at 60° C. Selected Reaction Monitoring (SRM) was used for data acquisition. Multiple charged ion species, i.e. (M+2H)^2+ for Compound of SEQ ID NO: 158 were selected in Q1 and were collisionally dissociated with high purity nitrogen at a pressure of 3.5×10^−3 torr in Q2 to form specific product ions which were subsequently monitored in Q3. The ion transitions and voltages are summarized below (Table 4).
The standard curve concentrations, ranging from 1 to 1000 nM, were analyzed in duplicate. The curves were fitted with a linear regression weighted by reciprocal concentration […]. Quality control (QC) samples, prepared in blank matrix at the same concentrations as the standards were also analyzed in each analytical set. […]

[2] = system: ob/ob mice; experiment: Intraperitoneal glucose tolerance test (ipGTT) in ob/ob mice after sc injection; format: in vivo, mouse; details: 10 nmol/kg sc; relative to vehicle-treated group
Method: Peptides were dissolved in an appropriate vehicle at a concentration in nmol/ml equivalent to the dose that was to be administered in nmol/kg so that each mouse would receive the same volume/weight of dosing solution. Male C57BL/6-ob/ob mice (10 weeks old) were randomized into groups of 6 mice per group based on fed plasma glucose and body weight. After an overnight fast, mice were weighed and placed in the experimental lab. After 30 min in the environment, the mice were bled via tail tip at −30 min and immediately injected subcutaneously (sc) with vehicle or the peptide dissolved in vehicle (0.1 ml solution/100 g body weight). At time 0 the mice were bled and then injected intraperitoneally with 50% glucose (2 g/kg) to initiate the intraperitoneal glucose tolerance test (ipGTT). The mice were bled 30, 60, 120 and 180 min after the glucose injection. Blood samples were drawn into potassium EDTA, placed on ice during the study and subsequently centrifuged for 10 min at 3000 rpm at 4° C. Plasma samples were diluted 11-fold for glucose analysis in the Cobas System. Another 5 μl plasma sample was diluted 5-fold with 20 μl of Sample Diluent (Insulin ELISA assay kit, Crystal Chem. Inc.) and stored at −20° C. for subsequent analysis using the Ultra Sensitive Mouse Insulin ELISA kit (Crystal Chem Inc.).

[3] = molecular target: T1, Human GLP-1 Receptor (Homo sapiens, UniProt P43220); experiment: Cyclic AMP determination in CHO cells expressing human GLP-1 receptor; format: cell-based; details: human GLP-1 receptor
T1 construct: Full-length human glucagon-like peptide 1 receptor was stably expressed in CHO-K1 cells; expressed in transfected cells; host or cells: CHO-K1 (clone CHO-GLP1R-19)
Method: CHO-GLP-1R-19 cells (20,000 in 100 μl of media) were plated into each well of a 96-well tissue culture microtiter plate and incubated overnight in a 5% CO2 atmosphere at 37° C. On the day of the assay, cells were washed once with 100 μl of phosphate-buffered saline (PBS). A Biomek 2000 was used to serially dilute all peptides prior to beginning the assay. Serial dilutions were carried out in 100% DMSO.
50 μl of each cAMP standard was added by hand and 70 μl of mix reagent (Amersham cAMP SPA kit) was added using the multidrop. […] This standard curve was used to convert CPM to pmol of cAMP.
Cell plates and peptide plates were loaded onto the Platemate. The media was aspirated from the wells and discarded. 100 uL per well of the peptide/buffer mixture were then added from the peptide plates to initiate the assay. After 30 min. of incubation the peptide/buffer was removed and 50 uL of the lysis reagent 1 solution was added per well. The plate was kept for one hour at RT or overnight if refrigerated and sealed.
Dose dependence for Compounds was determined at half-log concentrations in duplicate. […] A standard curve was determined using known amounts of cyclic AMP. […] The data were analyzed by nonlinear regression curve fitting (4 parameter sigmoidal dose-response curve) to determine the EC50 of the compounds.

[4] = molecular target: Full-length human glucagon-like peptide 1 receptor (human, UniProt P43220 24-463); experiment: cell-based or functional assay

T1 sequence (P43220 24-463): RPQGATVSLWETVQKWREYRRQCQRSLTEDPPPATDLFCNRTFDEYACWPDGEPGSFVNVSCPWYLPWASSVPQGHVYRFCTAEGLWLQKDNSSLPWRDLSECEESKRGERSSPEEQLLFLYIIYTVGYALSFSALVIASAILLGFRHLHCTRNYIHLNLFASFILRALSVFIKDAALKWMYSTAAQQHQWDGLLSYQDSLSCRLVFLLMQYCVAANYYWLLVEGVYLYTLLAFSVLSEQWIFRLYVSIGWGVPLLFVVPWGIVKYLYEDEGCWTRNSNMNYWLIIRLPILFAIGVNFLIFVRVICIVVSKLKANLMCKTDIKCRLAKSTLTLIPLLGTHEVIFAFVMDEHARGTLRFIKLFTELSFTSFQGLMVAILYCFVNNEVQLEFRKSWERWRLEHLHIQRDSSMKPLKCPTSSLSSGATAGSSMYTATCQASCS

Molecule | Exposure in dogs (sc@67 μg/kg) [1] [µM·h] | further results
CCc1cc(OC)ccc1-c1ccc(C[C@H](NC(=O)[C@H](CC(=O)O)NC(=O)[C@H](CO)NC(=O)[C@@H](NC(=O)[C@](C)(Cc2ccccc2F)NC(=O)[C@@H](NC(=O)CNC(=O)[C@H](CCC(=O)O)NC(=O)[C@@H](C)N(C)C(=O)[C@@H](N)Cc2c[nH]cn2)[C@@H](C)O)[C@@H](C)O)C(=O)N[C@@H](Cc2ccc(-c3ccccc3C)nc2)C(N)=O)cc1 [SEQ ID NO: 119] (H-H[dNMeA]EGT[αMePhe(2-F)]TSD[Bip(2'-Et-4'-OMe)][Ala(6-(2-MePh)pyridin-3-yl)]-NH2) | 1.257 | –
CCc1cc(OC)ccc1-c1ccc(C[C@H](NC(=O)[C@H](CC(=O)O)NC(=O)[C@H](Cc2c[nH]cn2)NC(=O)[C@@H](NC(=O)[C@](C)(Cc2ccccc2F)NC(=O)[C@@H](NC(=O)CNC(=O)[C@H](CCC(=O)O)NC(=O)[C@]2(C)CCCN2C(=O)[C@@H](N)Cc2c[nH]cn2)[C@@H](C)O)[C@@H](C)O)C(=O)N[C@@H](Cc2ccc(-c3ccccc3C)nc2)C(N)=O)cc1 [SEQ ID NO: 120] (H-H[αMeP]EGT[αMePhe(2-F)]THD[Bip(2'-Et-4'-OMe)][Ala(6-(2-MePh)pyridin-3-yl)]-NH2) | 1.116 | –
CCc1cc(OC)ccc1-c1ccc(C[C@H](NC(=O)[C@H](CC(=O)O)NC(=O)[C@H](CO)NC(=O)[C@@H](NC(=O)[C@](C)(Cc2ccccc2F)NC(=O)[C@@H](NC(=O)CNC(=O)[C@H](CCC(=O)O)NC(=O)C(C)(C)NC(=O)[C@@H](N)Cc2c[nH]cn2)[C@@H](C)O)[C@@H](C)O)C(=O)N[C@@H](Cc2cnc(-c3ccccc3C)nc2)C(N)=O)cc1 [SEQ ID NO: 130] (H-H[Aib]EGT[αMePhe(2-F)]TSD[Bip(2'-Et-4'-OMe)][X2]-NH2) | 0.541 | –
CCc1cc(OC)ccc1-c1ccc(C[C@H](NC(=O)[C@H](CC(=O)O)NC(=O)[C@H](CO)NC(=O)[C@@H](NC(=O)C(C)(Cc2ccccc2F)NC(=O)[C@@H](NC(=O)CNC(=O)[C@H](CCC(=O)O)NC(=O)C2(C)CCCN2C(=O)[C@H](Cc2c[nH]cn2)NC(=O)OC)[C@@H](C)O)[C@@H](C)O)C(=O)N[C@@H](Cc2ccc(-c3ccccc3C)nc2)C(N)=O)cc1 (stereo partly drawn) [SEQ ID NO: 139] (Moc-H[ξαMeP]EGT[ξαMePhe(2-F)]TSD[Bip(2'-Et-4'-OMe)][Ala(6-(2-MePh)pyridin-3-yl)]-NH2) | 1.603 | Potency in ob/ob mice: % AUC Reduction in Plasma Glucose in an IP Glucose Tolerance Test after SC Injection of Compound [2]: −63% (p < 0.01)
CCc1cc(OC)ccc1-c1ccc(C[C@H](NC(=O)[C@H](CC(=O)O)NC(=O)[C@H](CO)NC(=O)[C@@H](NC(=O)[C@](C)(Cc2c(F)cccc2F)NC(=O)[C@@H](NC(=O)CNC(=O)[C@H](CCC(=O)O)NC(=O)[C@]2(C)CCCN2C(=O)[C@H](Cc2c[nH]cn2)NC(=O)OC)[C@@H](C)O)[C@@H](C)O)C(=O)N[C@@H](Cc2ccc(-c3ccccc3C)nc2)C(N)=O)cc1 [SEQ ID NO: 140] (Moc-H[αMeP]EGT[αMePhe(2,6-F2)]TSD[Bip(2'-Et-4'-OMe)][Ala(6-(2-MePh)pyridin-3-yl)]-NH2) | 0.283 | –
CCc1cc(O)ccc1-c1ccc(C[C@H](NC(=O)[C@H](CC(=O)O)NC(=O)[C@H](Cc2c[nH]cn2)NC(=O)[C@@H](NC(=O)C(C)(Cc2ccccc2F)NC(=O)[C@@H](NC(=O)CNC(=O)[C@H](CCC(=O)O)NC(=O)C2(C)CCCN2C(=O)[C@H](Cc2c[nH]cn2)NC(=O)OC)[C@@H](C)O)[C@@H](C)O)C(=O)N[C@@H](Cc2ccc(-c3ccccc3C)nc2)C(N)=O)cc1 (stereo partly drawn) [SEQ ID NO: 157] (Moc-H[ξαMeP]EGT[ξαMePhe(2-F)]THD[Phe(4-(2-Et-4-HO-Ph))][Ala(6-(2-MePh)pyridin-3-yl)]-NH2) | – | Emax ([3]; CHO, percent of maximal GLP-1 stimulated activity): 99.4%; Mean Hill [3]: 1.9
Moc-H[αMeP]EGT[αMePhe(2-F)]THD[Phe(4-(2-Et-4-HO-Ph))][X1]-NH2 [Compound of SEQ ID NO: 157] | – | Mean EC50 (nM), stimulation of cAMP synthesis in CHO cells [4]: 0.026 nM; Mean Emax (%), stimulation of cAMP synthesis in CHO cells [4]: 99.4%

More lines, main results first:

Exposure in dogs (sc@67 μg/kg) [1] [µM·h] | Molecule | further results
0.94 | CCc1cc(OC)ccc1-c1ccc(C[C@H](NC(=O)[C@H](CC(=O)O)NC(=O)[C@H](CO)NC(=O)[C@@H](NC(=O)[C@](C)(Cc2ccccc2F)NC(=O)[C@@H](NC(=O)CNC(=O)[C@H](CCC(=O)O)NC(=O)[C@@H](C)NC(=O)[C@@H](N)Cc2c[nH]cn2)[C@@H](C)O)[C@@H](C)O)C(=O)N[C@@H](Cc2ccc(-c3ccccc3C)nc2)C(N)=O)cc1 [SEQ ID NO: 149] (H-H[dA]EGT[αMePhe(2-F)]TSD[Bip(2'-Et-4'-OMe)][Ala(6-(2-MePh)pyridin-3-yl)]-NH2) | –
0.979 | CCc1cc(OC)ccc1-c1ccc(C[C@H](NC(=O)[C@H](CC(=O)O)NC(=O)[C@H](CO)NC(=O)[C@@H](NC(=O)[C@](C)(Cc2ccccc2F)NC(=O)[C@@H](NC(=O)CNC(=O)[C@H](Cc2c[nH]cn2)NC(=O)C(C)(C)NC(=O)[C@@H](N)Cc2c[nH]cn2)[C@@H](C)O)[C@@H](C)O)C(=O)N[C@@H](Cc2ccc(-c3ccccc3C)nc2)C(N)=O)cc1 [SEQ ID NO: 150] (H-H[Aib]HGT[αMePhe(2-F)]TSD[Bip(2'-Et-4'-OMe)][Ala(6-(2-MePh)pyridin-3-yl)]-NH2) | –
